Results taken from the kinase profiling compilation of Christmann-Franck et al. (2016).

Key:
Test in all cases: radiometric filter-binding kinase assay, Kinase HotSpot
Conditions in all cases: compound 0.5 µM; ATP 10 µM
CDK7 CCNH MNAT1 (human) = CDK7 CCNH MNAT1 (human) (UniProt P50613+P51948+P51946)
PLK2 (human) = PLK2 (human) (UniProt Q9NYY3)
RPS6KA6 KD1 KD2 (human) = RPS6KA6 KD1 KD2 (human) (UniProt Q9UK32)
EPHB1 (human) = EPHB1 (human) (UniProt P54762)
CDK9 CCNT1 (human) = CDK9 CCNT1 (human) (UniProt P50750+O60563)
AKT2 (human) = AKT2 (human) (UniProt P31751)
MAP3K5 (human) = MAP3K5 (human) (UniProt Q99683)
CSF1R (human) = CSF1R (human) (UniProt P07333)
MUSK (human) = MUSK (human) (UniProt O15146)
CDK5 CDK5R1 p25 (human) = CDK5 CDK5R1 p25 (human) (UniProt Q00535+Q15078)
Sequence of CDK5 CDK5R1 p25 (human) (Q00535 whole entry, looked up): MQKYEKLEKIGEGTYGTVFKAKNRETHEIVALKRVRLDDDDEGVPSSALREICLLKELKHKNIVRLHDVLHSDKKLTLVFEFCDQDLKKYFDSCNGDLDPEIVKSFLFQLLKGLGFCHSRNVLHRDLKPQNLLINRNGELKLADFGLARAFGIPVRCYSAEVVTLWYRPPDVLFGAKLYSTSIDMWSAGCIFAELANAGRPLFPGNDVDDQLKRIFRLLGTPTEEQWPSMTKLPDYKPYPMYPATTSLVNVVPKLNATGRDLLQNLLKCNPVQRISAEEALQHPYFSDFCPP
Sequence of CDK5 CDK5R1 p25 (human) (Q15078 whole entry, looked up): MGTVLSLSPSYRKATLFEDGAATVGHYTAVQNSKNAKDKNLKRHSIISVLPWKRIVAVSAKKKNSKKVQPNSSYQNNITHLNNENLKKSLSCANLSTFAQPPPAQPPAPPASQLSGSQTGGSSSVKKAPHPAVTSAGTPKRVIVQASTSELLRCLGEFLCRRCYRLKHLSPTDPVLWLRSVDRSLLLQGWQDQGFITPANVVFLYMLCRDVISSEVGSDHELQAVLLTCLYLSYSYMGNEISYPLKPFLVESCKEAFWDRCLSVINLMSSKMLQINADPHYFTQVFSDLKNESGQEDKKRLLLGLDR

MAP3K3 (human) = MAP3K3 (human) (UniProt Q99759)
MAP3K11 (human) = MAP3K11 (human) (UniProt Q16584)
TEC (human) = TEC (human) (UniProt P42680)
HIPK2 (human) = HIPK2 (human) (UniProt Q9H2X6)
GSK3A (human) = GSK3A (human) (UniProt P49840)
Sequence of GSK3A (human) (P49840 whole entry, looked up): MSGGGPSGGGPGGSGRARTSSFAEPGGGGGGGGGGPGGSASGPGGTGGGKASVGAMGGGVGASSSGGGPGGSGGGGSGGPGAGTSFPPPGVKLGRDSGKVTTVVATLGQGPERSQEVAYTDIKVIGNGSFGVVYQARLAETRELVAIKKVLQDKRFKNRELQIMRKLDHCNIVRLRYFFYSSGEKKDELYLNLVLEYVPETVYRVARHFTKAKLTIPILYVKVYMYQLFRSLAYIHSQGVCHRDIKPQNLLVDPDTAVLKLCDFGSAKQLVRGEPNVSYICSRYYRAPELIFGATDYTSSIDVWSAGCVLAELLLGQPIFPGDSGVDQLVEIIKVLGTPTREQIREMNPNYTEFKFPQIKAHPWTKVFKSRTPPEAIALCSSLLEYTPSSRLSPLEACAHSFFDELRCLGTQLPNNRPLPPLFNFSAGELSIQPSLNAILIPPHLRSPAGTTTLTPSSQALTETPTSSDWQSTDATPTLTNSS

NLK (human) = NLK (human) (UniProt Q9UBE8)
EPHB3 (human) = EPHB3 (human) (UniProt P54753)
GRK7 (human) = GRK7 (human) (UniProt Q8WTQ7)
GRK6 (human) = GRK6 (human) (UniProt P43250)
RPS6KA2 KD1 KD2 (human) = RPS6KA2 KD1 KD2 (human) (UniProt Q15349)
Sequence of RPS6KA2 KD1 KD2 (human) (Q15349 whole entry, looked up): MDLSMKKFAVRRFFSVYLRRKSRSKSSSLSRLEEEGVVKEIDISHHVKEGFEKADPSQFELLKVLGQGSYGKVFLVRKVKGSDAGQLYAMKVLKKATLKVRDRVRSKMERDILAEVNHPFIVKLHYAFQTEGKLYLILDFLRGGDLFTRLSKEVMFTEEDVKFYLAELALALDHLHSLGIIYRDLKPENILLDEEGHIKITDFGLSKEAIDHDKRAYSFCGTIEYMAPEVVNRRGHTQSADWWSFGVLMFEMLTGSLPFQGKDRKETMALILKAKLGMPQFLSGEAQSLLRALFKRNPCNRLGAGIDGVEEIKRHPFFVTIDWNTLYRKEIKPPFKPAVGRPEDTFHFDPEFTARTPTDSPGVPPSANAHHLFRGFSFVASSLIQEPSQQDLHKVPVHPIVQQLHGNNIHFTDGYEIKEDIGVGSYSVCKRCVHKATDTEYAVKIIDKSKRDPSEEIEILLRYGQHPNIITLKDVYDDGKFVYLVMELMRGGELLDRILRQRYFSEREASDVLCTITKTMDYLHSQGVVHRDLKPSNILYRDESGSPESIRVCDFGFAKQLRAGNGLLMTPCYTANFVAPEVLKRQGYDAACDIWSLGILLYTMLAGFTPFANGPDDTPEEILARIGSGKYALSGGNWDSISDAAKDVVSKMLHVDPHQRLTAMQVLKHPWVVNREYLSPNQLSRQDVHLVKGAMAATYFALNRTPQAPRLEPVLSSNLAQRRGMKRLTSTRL

PRKCD (human) = PRKCD (human) (UniProt Q05655)
MARK2 (human) = MARK2 (human) (UniProt Q7KZI7)
MINK1 (human) = MINK1 (human) (UniProt Q8N4C8)
MAPK8 (human) = MAPK8 (human) (UniProt P45983)
CAMK1G (human) = CAMK1G (human) (UniProt Q96NX5)
CDK3 CCNE1 (human) = CDK3 CCNE1 (human) (UniProt Q00526+P24864)
AKT3 (human) = AKT3 (human) (UniProt Q9Y243)
Sequence of AKT3 (human) (Q9Y243 whole entry, looked up): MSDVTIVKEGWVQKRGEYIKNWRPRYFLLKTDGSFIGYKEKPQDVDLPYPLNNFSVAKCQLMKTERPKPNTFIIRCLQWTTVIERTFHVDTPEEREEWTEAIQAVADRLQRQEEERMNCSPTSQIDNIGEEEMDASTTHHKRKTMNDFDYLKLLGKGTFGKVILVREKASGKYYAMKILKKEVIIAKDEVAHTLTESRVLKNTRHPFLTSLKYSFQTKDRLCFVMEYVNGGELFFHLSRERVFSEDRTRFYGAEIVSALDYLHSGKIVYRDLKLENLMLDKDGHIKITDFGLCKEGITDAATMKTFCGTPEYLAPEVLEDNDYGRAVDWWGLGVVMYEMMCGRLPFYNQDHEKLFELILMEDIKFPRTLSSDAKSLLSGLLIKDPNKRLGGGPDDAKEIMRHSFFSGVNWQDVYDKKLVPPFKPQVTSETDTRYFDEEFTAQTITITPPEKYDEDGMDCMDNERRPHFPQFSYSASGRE

NUAK1 (human) = NUAK1 (human) (UniProt O60285)
PRKG2 (human) = PRKG2 (human) (UniProt Q13237)
MAP3K10 (human) = MAP3K10 (human) (UniProt Q02779)
EPHA5 (human) = EPHA5 (human) (UniProt P54756)
TSSK2 (human) = TSSK2 (human) (UniProt Q96PF2)
SRPK1 (human) = SRPK1 (human) (UniProt Q96SB4)
MET (human) = MET (human) (UniProt P08581)
Sequence of MET (human) (P08581 whole entry, looked up): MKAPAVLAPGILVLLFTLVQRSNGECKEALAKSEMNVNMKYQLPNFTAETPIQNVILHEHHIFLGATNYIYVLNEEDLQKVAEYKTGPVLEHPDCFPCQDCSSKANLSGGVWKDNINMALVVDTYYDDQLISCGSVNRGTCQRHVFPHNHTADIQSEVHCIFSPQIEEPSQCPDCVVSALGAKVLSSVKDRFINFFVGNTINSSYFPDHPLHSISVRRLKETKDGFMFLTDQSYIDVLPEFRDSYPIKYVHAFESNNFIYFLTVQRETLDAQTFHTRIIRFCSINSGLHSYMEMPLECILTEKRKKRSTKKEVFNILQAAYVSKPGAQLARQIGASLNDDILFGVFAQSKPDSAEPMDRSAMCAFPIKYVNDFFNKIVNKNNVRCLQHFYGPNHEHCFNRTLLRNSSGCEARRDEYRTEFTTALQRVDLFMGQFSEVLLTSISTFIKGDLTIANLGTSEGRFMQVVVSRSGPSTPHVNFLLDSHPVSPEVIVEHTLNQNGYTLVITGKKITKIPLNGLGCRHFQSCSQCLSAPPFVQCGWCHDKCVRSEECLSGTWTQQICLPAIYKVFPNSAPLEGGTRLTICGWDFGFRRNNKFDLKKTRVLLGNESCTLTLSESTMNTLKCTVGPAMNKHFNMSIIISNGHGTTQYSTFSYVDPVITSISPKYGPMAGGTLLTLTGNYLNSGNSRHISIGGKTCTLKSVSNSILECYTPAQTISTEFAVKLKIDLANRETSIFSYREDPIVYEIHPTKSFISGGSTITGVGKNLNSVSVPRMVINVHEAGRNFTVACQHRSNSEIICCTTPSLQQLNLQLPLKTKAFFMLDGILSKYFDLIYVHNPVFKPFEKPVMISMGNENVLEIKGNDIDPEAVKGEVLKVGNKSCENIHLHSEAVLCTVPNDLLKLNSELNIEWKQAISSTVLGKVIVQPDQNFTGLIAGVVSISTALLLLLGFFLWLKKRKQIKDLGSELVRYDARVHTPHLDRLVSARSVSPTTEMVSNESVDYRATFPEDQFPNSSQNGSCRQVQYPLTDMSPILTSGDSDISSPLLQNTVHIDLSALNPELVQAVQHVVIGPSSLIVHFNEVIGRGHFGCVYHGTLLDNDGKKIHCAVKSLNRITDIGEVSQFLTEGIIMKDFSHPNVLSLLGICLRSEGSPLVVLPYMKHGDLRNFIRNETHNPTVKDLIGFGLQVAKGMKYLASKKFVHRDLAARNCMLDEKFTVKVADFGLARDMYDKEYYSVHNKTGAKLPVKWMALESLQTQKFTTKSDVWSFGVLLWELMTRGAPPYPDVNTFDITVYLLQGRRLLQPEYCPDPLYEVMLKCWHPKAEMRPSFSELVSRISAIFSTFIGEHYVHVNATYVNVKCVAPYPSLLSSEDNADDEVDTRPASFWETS

ROCK2 (human) = ROCK2 (human) (UniProt O75116)
ROS1 (human) = ROS1 (human) (UniProt P08922)
NEK6 (human) = NEK6 (human) (UniProt Q9HC98)
Sequence of NEK6 (human) (Q9HC98 whole entry, looked up): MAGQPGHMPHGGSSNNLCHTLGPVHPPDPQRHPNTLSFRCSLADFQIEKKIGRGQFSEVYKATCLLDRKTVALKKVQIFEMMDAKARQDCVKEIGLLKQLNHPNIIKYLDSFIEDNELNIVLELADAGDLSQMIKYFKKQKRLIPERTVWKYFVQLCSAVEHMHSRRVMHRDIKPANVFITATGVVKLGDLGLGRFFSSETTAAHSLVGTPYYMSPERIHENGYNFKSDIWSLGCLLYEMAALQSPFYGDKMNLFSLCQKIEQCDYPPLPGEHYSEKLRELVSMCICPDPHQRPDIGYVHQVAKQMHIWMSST

MAP4K5 (human) = MAP4K5 (human) (UniProt Q9Y4K4)
PKN1 (human) = PKN1 (human) (UniProt Q16512)
FGFR3 (human) = FGFR3 (human) (UniProt P22607)
RPS6KB1 (human) = RPS6KB1 (human) (UniProt P23443)

Sequence of EPHB1 (human) (P54762 whole entry, looked up): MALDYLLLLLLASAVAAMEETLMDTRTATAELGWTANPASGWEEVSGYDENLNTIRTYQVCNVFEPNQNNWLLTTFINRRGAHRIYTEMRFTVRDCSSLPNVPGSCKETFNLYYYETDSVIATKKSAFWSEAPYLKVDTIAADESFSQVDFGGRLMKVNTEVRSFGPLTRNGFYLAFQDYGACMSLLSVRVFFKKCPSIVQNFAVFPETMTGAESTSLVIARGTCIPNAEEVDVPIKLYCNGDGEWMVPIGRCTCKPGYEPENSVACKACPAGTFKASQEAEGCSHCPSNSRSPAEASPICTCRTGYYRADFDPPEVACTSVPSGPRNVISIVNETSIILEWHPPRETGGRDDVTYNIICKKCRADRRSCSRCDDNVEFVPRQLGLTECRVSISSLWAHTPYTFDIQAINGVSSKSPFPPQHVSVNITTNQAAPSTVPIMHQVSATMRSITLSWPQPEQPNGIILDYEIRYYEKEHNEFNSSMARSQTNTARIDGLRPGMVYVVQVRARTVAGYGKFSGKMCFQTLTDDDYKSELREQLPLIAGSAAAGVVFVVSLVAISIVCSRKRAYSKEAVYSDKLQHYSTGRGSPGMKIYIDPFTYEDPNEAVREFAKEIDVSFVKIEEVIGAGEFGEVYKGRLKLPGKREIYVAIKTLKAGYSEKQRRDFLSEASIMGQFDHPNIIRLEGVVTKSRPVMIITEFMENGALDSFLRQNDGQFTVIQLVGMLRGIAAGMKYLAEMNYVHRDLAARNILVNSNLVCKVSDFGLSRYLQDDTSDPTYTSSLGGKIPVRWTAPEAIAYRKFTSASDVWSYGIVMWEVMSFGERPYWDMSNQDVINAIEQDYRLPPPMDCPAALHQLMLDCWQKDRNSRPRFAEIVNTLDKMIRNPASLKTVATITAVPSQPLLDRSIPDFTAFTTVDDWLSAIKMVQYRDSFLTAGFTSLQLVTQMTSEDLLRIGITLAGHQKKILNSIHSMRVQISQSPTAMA

`CS(=O)c1ccc(-c2nc(-c3ccc(F)cc3)c(-c3ccncc3)[nH]2)cc1` (centres undefined) showed a residual activity (CDK7 CCNH MNAT1 (human)) of 96.8%, a residual activity (PLK2 (human)) of 95.6% and a residual activity (RPS6KA6 KD1 KD2 (human)) of 110%. The residual activity (EPHB1 (human)) was 93%, the residual activity (CDK9 CCNT1 (human)) was 83.8% and the residual activity (AKT2 (human)) was 96.8%. For the same molecule, the residual activity (MAP3K5 (human)) was 107%, the residual activity (CSF1R (human)) was 95.5% and the residual activity (MUSK (human)) was 90.3%. For the same molecule, the residual activity (CDK5 CDK5R1 p25 (human)) was 90.6%, the residual activity (MAP3K3 (human)) was 102% and the residual activity (MAP3K11 (human)) was 96.4%. It also gave a residual activity (TEC (human)) of 113%, a residual activity (HIPK2 (human)) of 102% and a residual activity (GSK3A (human)) of 94.1%. For the same molecule, the residual activity (NLK (human)) was 53.8%, the residual activity (EPHB3 (human)) was 96.7% and the residual activity (GRK7 (human)) was 107%. It also gave a residual activity (GRK6 (human)) of 102%, a residual activity (RPS6KA2 KD1 KD2 (human)) of 102% and a residual activity (PRKCD (human)) of 107%. The residual activity (MARK2 (human)) was 99.1%, the residual activity (MINK1 (human)) was 107% and the residual activity (MAPK8 (human)) was 96.1%. The residual activity (CAMK1G (human)) was 99.3%, the residual activity (CDK3 CCNE1 (human)) was 94.6% and the residual activity (AKT3 (human)) was 102%. It also gave a residual activity (NUAK1 (human)) of 94.4%, a residual activity (PRKG2 (human)) of 92.7% and a residual activity (MAP3K10 (human)) of 104%. The residual activity (EPHA5 (human)) was 89.5%, the residual activity (TSSK2 (human)) was 95.7% and the residual activity (SRPK1 (human)) was 99.5%. It also gave a residual activity (MET (human)) of 103%, a residual activity (ROCK2 (human)) of 98.4% and a residual activity (ROS1 (human)) of 94.4%. The residual activity (NEK6 (human)) was 103%, the residual activity (MAP4K5 (human)) was 99.5% and the residual activity (PKN1 (human)) was 96.5%. The residual activity (FGFR3 (human)) was 97% and the residual activity (RPS6KB1 (human)) was 97.4%.

`O=C(NC(NC(=S)Nc1ccc(F)c([N+](=O)[O-])c1)C(Cl)(Cl)Cl)C(c1ccccc1)c1ccccc1` (centres undefined) was tested, and the residual activity (CDK7 CCNH MNAT1 (human)) was 99%, the residual activity (PLK2 (human)) was 92.9% and the residual activity (RPS6KA6 KD1 KD2 (human)) was 94.7%. The residual activity (EPHB1 (human)) was 109%, the residual activity (CDK9 CCNT1 (human)) was 95% and the residual activity (AKT2 (human)) was 91.6%. It also gave a residual activity (MAP3K5 (human)) of 97.1%, a residual activity (CSF1R (human)) of 96.2% and a residual activity (MUSK (human)) of 106%. It also gave a residual activity (CDK5 CDK5R1 p25 (human)) of 96.8%, a residual activity (MAP3K3 (human)) of 118% and a residual activity (MAP3K11 (human)) of 102%. The residual activity (TEC (human)) was 201%, the residual activity (HIPK2 (human)) was 118% and the residual activity (GSK3A (human)) was 105%. The residual activity (NLK (human)) was 106%, the residual activity (EPHB3 (human)) was 104% and the residual activity (GRK7 (human)) was 101%. It also gave a residual activity (GRK6 (human)) of 97.5%, a residual activity (RPS6KA2 KD1 KD2 (human)) of 101% and a residual activity (PRKCD (human)) of 91.2%. For the same molecule, the residual activity (MARK2 (human)) was 92.3%, the residual activity (MINK1 (human)) was 110% and the residual activity (MAPK8 (human)) was 82.1%. It also gave a residual activity (CAMK1G (human)) of 102%, a residual activity (CDK3 CCNE1 (human)) of 105% and a residual activity (AKT3 (human)) of 106%. It also gave a residual activity (NUAK1 (human)) of 95.3%, a residual activity (PRKG2 (human)) of 96.6% and a residual activity (MAP3K10 (human)) of 98.9%. The residual activity (EPHA5 (human)) was 107%, the residual activity (TSSK2 (human)) was 92.7% and the residual activity (SRPK1 (human)) was 99.3%. For the same molecule, the residual activity (MET (human)) was 101%, the residual activity (ROCK2 (human)) was 109% and the residual activity (ROS1 (human)) was 99.5%. The residual activity (NEK6 (human)) was 109%, the residual activity (MAP4K5 (human)) was 91% and the residual activity (PKN1 (human)) was 92.8%. The residual activity (FGFR3 (human)) was 96.8% and the residual activity (RPS6KB1 (human)) was 91.9%.

Molecule `Nc1nc(Nc2ccc(S(N)(=O)=O)cc2)nn1C(=S)Nc1c(F)cccc1F` has a residual activity (CDK7 CCNH MNAT1 (human)) of 43.6%, a residual activity (PLK2 (human)) of 88.5% and a residual activity (RPS6KA6 KD1 KD2 (human)) of 2.42%. The residual activity (EPHB1 (human)) was 19.4%, the residual activity (CDK9 CCNT1 (human)) was 15.6% and the residual activity (AKT2 (human)) was 103%. It also gave a residual activity (MAP3K5 (human)) of 1.12%, a residual activity (CSF1R (human)) of 10.6% and a residual activity (MUSK (human)) of 8.02%. The residual activity (CDK5 CDK5R1 p25 (human)) was 0.156%, the residual activity (MAP3K3 (human)) was 5.41% and the residual activity (MAP3K11 (human)) was 1.33%. It also gave a residual activity (TEC (human)) of 106%, a residual activity (HIPK2 (human)) of 62.1% and a residual activity (GSK3A (human)) of 6.3%. The residual activity (NLK (human)) was 45.1%, the residual activity (EPHB3 (human)) was 90.4% and the residual activity (GRK7 (human)) was 96.6%. It also gave a residual activity (GRK6 (human)) of 89.4%, a residual activity (RPS6KA2 KD1 KD2 (human)) of 2.08% and a residual activity (PRKCD (human)) of 22.2%. For the same molecule, the residual activity (MARK2 (human)) was 3.43%, the residual activity (MINK1 (human)) was 3.06% and the residual activity (MAPK8 (human)) was 78.8%. The residual activity (CAMK1G (human)) was 95.9%, the residual activity (CDK3 CCNE1 (human)) was -0.912% and the residual activity (AKT3 (human)) was 96.4%. It also gave a residual activity (NUAK1 (human)) of 2.13%, a residual activity (PRKG2 (human)) of 61.4% and a residual activity (MAP3K10 (human)) of 3%. For the same molecule, the residual activity (EPHA5 (human)) was 56.7%, the residual activity (TSSK2 (human)) was 91.3% and the residual activity (SRPK1 (human)) was 25.9%. It also gave a residual activity (MET (human)) of 40.4%, a residual activity (ROCK2 (human)) of 6.22% and a residual activity (ROS1 (human)) of 1.68%. For the same molecule, the residual activity (NEK6 (human)) was 78.8%, the residual activity (MAP4K5 (human)) was 1.71% and the residual activity (PKN1 (human)) was 9.7%. It also gave a residual activity (FGFR3 (human)) of 4.96% and a residual activity (RPS6KB1 (human)) of 30%.

In the case of `Nc1n[nH]c2nnc(-c3c(-c4ccccc4)nn4ccccc34)cc12`, the residual activity (CDK7 CCNH MNAT1 (human)) is reported as 99%, the residual activity (PLK2 (human)) is reported as 107% and the residual activity (RPS6KA6 KD1 KD2 (human)) is reported as 95.5%. The residual activity (EPHB1 (human)) was 98.6%, the residual activity (CDK9 CCNT1 (human)) was 97.3% and the residual activity (AKT2 (human)) was 97.5%. It also gave a residual activity (MAP3K5 (human)) of 99.3%, a residual activity (CSF1R (human)) of 96.8% and a residual activity (MUSK (human)) of 96.8%. The residual activity (CDK5 CDK5R1 p25 (human)) was 101%, the residual activity (MAP3K3 (human)) was 110% and the residual activity (MAP3K11 (human)) was 94.3%. The residual activity (TEC (human)) was 96.1%, the residual activity (HIPK2 (human)) was 104% and the residual activity (GSK3A (human)) was 81.2%. It also gave a residual activity (NLK (human)) of 102%, a residual activity (EPHB3 (human)) of 96.8% and a residual activity (GRK7 (human)) of 96.7%. The residual activity (GRK6 (human)) was 99.3%, the residual activity (RPS6KA2 KD1 KD2 (human)) was 96.5% and the residual activity (PRKCD (human)) was 31.2%. It also gave a residual activity (MARK2 (human)) of 104%, a residual activity (MINK1 (human)) of 73% and a residual activity (MAPK8 (human)) of 98%. The residual activity (CAMK1G (human)) was 99.2%, the residual activity (CDK3 CCNE1 (human)) was 96.8% and the residual activity (AKT3 (human)) was 97.5%. The residual activity (NUAK1 (human)) was 92.5%, the residual activity (PRKG2 (human)) was 104% and the residual activity (MAP3K10 (human)) was 90.7%. For the same molecule, the residual activity (EPHA5 (human)) was 101%, the residual activity (TSSK2 (human)) was 104% and the residual activity (SRPK1 (human)) was 83.7%. For the same molecule, the residual activity (MET (human)) was 95%, the residual activity (ROCK2 (human)) was 89.6% and the residual activity (ROS1 (human)) was 80.2%. The residual activity (NEK6 (human)) was 95.6%, the residual activity (MAP4K5 (human)) was 50.3% and the residual activity (PKN1 (human)) was 98.2%. It also gave a residual activity (FGFR3 (human)) of 102% and a residual activity (RPS6KB1 (human)) of 97.7%.
